The values that follow come from ChEMBL document CHEMBL1136903, “Spiroimidazolidinone NPC1L1 inhibitors. 1: Discovery by 3D-similarity-based virtual screening” (Bioorg Med Chem Lett, 2009).

The target in assay [1] is T1, NPC1-like intracellular cholesterol transporter 1 (Homo sapiens, UniProt Q9UHC9).
T1 sequence (Q9UHC9 whole entry): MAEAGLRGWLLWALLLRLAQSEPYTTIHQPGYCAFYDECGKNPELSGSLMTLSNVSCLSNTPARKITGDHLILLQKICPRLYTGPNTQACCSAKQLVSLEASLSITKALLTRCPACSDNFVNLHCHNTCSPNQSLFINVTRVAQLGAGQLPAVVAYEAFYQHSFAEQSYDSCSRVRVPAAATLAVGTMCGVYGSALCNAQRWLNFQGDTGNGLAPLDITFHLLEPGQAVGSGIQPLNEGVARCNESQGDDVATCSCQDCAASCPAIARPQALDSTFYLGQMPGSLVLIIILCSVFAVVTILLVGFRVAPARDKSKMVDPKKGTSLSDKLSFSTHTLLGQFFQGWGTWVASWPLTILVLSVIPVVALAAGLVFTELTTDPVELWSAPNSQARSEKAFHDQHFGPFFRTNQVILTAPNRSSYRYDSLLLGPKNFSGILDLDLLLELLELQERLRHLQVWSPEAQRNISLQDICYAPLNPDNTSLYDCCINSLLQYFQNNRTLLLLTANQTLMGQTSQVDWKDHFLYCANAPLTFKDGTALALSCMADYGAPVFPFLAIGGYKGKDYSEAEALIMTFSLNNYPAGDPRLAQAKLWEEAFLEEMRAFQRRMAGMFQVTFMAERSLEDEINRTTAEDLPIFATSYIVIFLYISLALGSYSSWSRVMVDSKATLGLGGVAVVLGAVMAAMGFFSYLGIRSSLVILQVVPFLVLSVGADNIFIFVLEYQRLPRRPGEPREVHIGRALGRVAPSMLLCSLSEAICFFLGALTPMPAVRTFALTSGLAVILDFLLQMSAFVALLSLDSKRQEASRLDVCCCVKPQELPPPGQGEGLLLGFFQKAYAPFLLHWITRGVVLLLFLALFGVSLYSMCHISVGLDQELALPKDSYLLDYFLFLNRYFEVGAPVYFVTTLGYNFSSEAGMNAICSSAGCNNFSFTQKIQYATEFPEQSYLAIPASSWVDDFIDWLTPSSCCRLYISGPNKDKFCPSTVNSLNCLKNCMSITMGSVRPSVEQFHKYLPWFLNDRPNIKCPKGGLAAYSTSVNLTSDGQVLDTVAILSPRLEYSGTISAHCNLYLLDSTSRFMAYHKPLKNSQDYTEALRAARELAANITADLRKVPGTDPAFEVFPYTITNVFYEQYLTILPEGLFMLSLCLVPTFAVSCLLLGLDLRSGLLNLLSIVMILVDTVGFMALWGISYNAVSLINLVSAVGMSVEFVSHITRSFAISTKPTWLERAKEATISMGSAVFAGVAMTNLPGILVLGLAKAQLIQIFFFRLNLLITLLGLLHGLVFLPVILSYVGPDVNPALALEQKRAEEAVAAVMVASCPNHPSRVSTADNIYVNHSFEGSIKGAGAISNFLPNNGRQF
Briefly: Displacement of [35S](2S,3S,4S,5R,6S)-6-(4-((2S,3R)-3-((S)-3-(4-fluorophenyl)-3-hydroxypropyl)-1-(4-(3-(methylsulfonamido)prop-1-ynyl)phenyl)-4-oxoazetidin-2-yl)phenoxy)-3,4,5-trihydroxytetrahydro-2H-pyran-2-carboxylic acid from NPC1L1 in human enterocyte brush border membrane. In general terms: Displacement assays read how much labelled ligand stays bound in the presence of the test substance.

Assay [2] has as its target NPC1-like intracellular cholesterol transporter 1 (Rattus norvegicus, UniProt Q6T3U3). Briefly: Displacement of [35S](2S,3S,4S,5R,6S)-6-(4-((2S,3R)-3-((S)-3-(4-fluorophenyl)-3-hydroxypropyl)-1-(4-(3-(methylsulfonamido)prop-1-ynyl)phenyl)-4-oxoazetidin-2-yl)phenoxy)-3,4,5-trihydroxytetrahydro-2H-pyran-2-carboxylic acid from NPC1L1 in rat enterocyte brush border membrane.

In assay [3] the target is T2, Niemann-Pick C1-like 1 protein (Canis lupus familiaris, UniProt A0MJA4).
T2 sequence (A0MJA4 whole entry): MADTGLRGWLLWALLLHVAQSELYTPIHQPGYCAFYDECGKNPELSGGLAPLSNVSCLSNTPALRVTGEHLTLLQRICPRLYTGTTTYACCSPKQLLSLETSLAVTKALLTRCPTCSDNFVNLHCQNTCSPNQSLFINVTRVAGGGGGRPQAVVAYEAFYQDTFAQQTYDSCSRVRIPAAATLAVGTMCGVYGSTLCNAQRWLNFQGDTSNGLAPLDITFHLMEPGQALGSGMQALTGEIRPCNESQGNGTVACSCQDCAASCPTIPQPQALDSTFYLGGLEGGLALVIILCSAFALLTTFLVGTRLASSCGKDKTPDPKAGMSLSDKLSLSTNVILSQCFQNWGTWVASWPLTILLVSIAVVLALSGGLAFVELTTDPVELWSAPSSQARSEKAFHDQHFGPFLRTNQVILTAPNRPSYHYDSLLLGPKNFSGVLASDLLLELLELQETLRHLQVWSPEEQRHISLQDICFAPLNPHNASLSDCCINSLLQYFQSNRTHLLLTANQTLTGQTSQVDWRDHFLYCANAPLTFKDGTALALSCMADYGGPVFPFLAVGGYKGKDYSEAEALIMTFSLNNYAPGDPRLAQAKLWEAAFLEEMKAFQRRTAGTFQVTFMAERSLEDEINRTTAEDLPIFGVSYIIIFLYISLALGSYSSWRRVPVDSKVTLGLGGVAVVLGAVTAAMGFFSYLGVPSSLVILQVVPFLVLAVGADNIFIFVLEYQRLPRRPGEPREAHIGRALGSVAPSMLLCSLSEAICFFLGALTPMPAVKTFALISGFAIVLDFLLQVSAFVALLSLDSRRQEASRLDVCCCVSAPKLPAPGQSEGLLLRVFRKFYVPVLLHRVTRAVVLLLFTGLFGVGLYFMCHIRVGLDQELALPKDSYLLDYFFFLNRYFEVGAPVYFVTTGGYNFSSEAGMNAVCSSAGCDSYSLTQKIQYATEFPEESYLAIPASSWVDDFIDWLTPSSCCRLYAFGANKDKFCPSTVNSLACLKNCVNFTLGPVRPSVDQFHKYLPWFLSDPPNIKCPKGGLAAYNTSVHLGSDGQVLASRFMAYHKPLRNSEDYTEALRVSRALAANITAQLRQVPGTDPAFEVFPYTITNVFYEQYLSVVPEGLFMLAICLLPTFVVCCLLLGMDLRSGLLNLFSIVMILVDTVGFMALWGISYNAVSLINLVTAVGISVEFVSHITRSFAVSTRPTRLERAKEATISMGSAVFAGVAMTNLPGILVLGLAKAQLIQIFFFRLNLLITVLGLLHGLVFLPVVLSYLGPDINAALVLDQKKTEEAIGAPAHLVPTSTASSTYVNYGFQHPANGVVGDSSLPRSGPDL
Briefly: Displacement of [35S](2S,3S,4S,5R,6S)-6-(4-((2S,3R)-3-((S)-3-(4-fluorophenyl)-3-hydroxypropyl)-1-(4-(3-(methylsulfonamido)prop-1-ynyl)phenyl)-4-oxoazetidin-2-yl)phenoxy)-3,4,5-trihydroxytetrahydro-2H-pyran-2-carboxylic acid from NPC1L1 in dog enterocyte brush border membrane.

SMILES strings stand for the structures. A value given as a limit tells only on which side of the number the result lay.

Sequence of NPC1-like intracellular cholesterol transporter 1 (Rattus norvegicus, UniProt Q6T3U3) (Q6T3U3 21-1331 limits assumed): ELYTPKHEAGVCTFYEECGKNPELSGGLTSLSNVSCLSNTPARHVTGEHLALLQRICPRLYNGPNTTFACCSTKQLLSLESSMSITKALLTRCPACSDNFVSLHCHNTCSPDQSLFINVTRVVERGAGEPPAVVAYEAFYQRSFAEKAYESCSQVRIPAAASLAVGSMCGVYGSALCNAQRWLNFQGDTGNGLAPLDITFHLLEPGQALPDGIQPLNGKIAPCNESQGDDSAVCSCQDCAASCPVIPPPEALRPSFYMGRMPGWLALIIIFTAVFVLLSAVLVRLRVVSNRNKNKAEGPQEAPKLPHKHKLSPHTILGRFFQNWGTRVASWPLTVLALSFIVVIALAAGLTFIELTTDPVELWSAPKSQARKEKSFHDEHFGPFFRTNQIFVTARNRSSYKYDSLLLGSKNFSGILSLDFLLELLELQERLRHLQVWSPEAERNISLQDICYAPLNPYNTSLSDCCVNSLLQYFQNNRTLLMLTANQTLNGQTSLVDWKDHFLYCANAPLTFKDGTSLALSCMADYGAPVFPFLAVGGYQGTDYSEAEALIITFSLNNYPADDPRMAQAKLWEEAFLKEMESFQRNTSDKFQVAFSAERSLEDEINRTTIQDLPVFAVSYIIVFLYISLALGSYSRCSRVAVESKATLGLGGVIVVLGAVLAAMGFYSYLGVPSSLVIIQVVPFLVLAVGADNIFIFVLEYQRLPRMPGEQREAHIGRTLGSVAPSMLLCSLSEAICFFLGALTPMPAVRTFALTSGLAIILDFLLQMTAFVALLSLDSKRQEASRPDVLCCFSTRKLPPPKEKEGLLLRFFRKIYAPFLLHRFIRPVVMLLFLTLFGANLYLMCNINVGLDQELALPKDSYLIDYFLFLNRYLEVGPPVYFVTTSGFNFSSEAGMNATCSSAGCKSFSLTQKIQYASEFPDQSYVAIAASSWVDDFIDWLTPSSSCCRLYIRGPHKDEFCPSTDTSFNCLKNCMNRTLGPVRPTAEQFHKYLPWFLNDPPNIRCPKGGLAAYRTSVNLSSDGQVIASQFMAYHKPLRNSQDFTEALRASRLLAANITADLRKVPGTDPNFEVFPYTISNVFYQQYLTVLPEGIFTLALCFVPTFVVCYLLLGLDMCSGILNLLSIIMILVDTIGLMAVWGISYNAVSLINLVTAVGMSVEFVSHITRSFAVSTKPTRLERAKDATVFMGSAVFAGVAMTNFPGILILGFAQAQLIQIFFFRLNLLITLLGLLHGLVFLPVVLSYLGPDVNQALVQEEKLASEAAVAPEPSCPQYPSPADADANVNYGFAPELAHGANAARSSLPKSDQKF

As for `CS(=O)(=O)NCC#CN1C(=O)[C@H](CC[C@H](O)c2ccc(F)cc2)[C@H]1c1ccc(O[C@@H]2O[C@H](C(=O)O)[C@@H](O)[C@H](O)[C@H]2O)cc1`, the IC50 (commonly the concentration needed to halve the response being measured) worked out at 20 nM in assay [1], 16 nM in assay [2] and 8 nM in assay [3].
Consider `CC(C)(C)c1ccc(C(=O)N2CCC3(CC2)C(=O)N(CC(=O)N2CCCCC2)CN3c2ccccc2)cc1`, for which the IC50 was 10000 nM in assay [1], 110000 nM in assay [2] and 170000 nM in assay [3].
For `O=C(O)[C@H]1O[C@@H](Oc2ccc([C@@H]3[C@@H](CC[C@H](O)c4ccc(F)cc4)C(=O)N3c3ccc(F)cc3)cc2)[C@H](O)[C@@H](O)[C@@H]1O`, in that order: 300 nM, 580 nM and 60 nM.
The matching figures for `O=C([C@@H]1C[C@@H](c2ccccc2)CN1C(=O)c1ccccc1)N1CCC2(C=Cc3ccccc32)CC1`: 5300 nM, 34000 nM and > 500000 nM.
